Data set [1] deals with DENV2. Nature of the data set: Antiviral activity in DENV2-infected Huh7 cells, infectious virus in supernatant by plaque assay. In kind it is cell-based, dengue virus. Particulars: Dengue virus, Huh-7, DENV2-infected Huh7 cells; for IC50: single infectious cycle, plaque assay at 24 hpi, read-out: IC50 of viral inhibition (infectious extracellular virus). Here is the method:
FIG 2 Pyrimethamine inhibits dengue virus and NS2B/3 proteinase cleavage like ARDP0006. (A) Chemical structures and (B) ROCS overlay of ARDP0006 and pyrimethamine. […] Infectious virus in cell supernatant was quantified by plaque assay at 24 hpi (left y axis, black or red). Cell viability was measured at the same pyrimethamine doses 24 h posttreatment by WST-1 assay (right y axis, gray). Viral titer and cell viability were normalized to DMSO-treated samples. (D) Splenic titers of DENV2-infected AGB6 mice at 4 days postinfection. Mice were infected with 1 × 10^6 PFU DENV2 and treated twice daily with 20 mg/kg pyrimethamine (n = 9) or a vehicle control (n = 10). Data were analyzed by two-tailed unpaired t test. (E) Cleavage kinetics of NS2B/3/4A in the presence of 100 μM pyrimethamine. NS2B/3/4A protein was expressed in vitro and radiolabeled with [^35S]methionine, followed by treatment with 100 μM pyrimethamine or DMSO. Reaction samples were obtained over a 45-min time course, separated by SDS-PAGE, and the fraction of uncleaved proteinase precursor remaining was determined as described previously ([23]). Data from three replicates were fit using single-phase exponential decay functions, and P value was determined by comparing the rate constant, K, of the models using the extra sum-of-squares F test.
Dengue plaque assays were carried out on BHK-21 cells in 24-well plates. Cells were infected with 10-fold serial dilutions of virus, which were allowed to adsorb for at least 1 h at 37°C, and overlaid with standard cell culture medium plus 0.37% (w/vol) sodium bicarbonate and 0.8% (w/vol) Aquacide II (Millipore Calbiochem). After 7 days of incubation at 37°C, 5% CO2, cells were fixed with 5% (final) formaldehyde and stained with crystal violet for plaque enumeration.
Between 4 × 10^4 and 1 × 10^5 Huh7 cells per well were seeded into 24-well plates 1 day prior to infection. Compounds were diluted to 100× final concentration in DMSO and then further diluted 1:100 into appropriate cell culture. Unless otherwise indicated, tested compounds were present for 1 h pretreatment and readministered for posttreatment following infection. […] Media and drugs were removed from cells for infection at a multiplicity of infection (MOI) of 0.1 or 0.5 in 200 μl cold medium per well. After 1 h at 37°C, virus inoculum was removed by aspiration and replaced with medium plus compound or control. After 24-h total infection, infectious virus was quantified by plaque assay. Antiviral IC50 dose-response curves were fitted in GraphPad Prism 8 using the “[inhibitor] versus response, variable slope” function with a constraint “bottom > 0.” IC90 values are defined as the dose at which “y = (span × 0.1) + bottom.”

Data set [2] deals with dengue virus. Briefly: Initial screening of hit compounds for anti-dengue activity in tissue culture cells (Table S1). It counts as cell-based. Particulars: viral titer relative to vehicle, tissue culture cell lines (BHK-21 48 hpi, Fig. S1; Huh7, Fig. 2C, 3C, 4C). The method, then:
For each query molecule, the top 500 compound hits obtained from the ROCS algorithm, as ranked by the Tanimoto combo score (see Data Set S1 in the supplemental material), were manually inspected for similar chemical and structural features. They were further prioritized by factors such as a lack of known side effects, commercial availability, and the intellectual property considerations that would be needed for worldwide, inexpensive use. Fourteen candidates were tested for their effects on dengue virus growth and toxicity in BHK-21 and Huh7 cells (see Table S1 and Fig. S1 in the supplemental material).
Supplementary file : TABLE S1 Summary of hits for lead compounds ARDP0006 and ST-148 screened for anti-dengue activity in tissue culture cells. Hit compounds were tested for anti-dengue activity and cell toxicity in tissue culture cell lines. Antiviral activity is summarized as follows: −, not antiviral, with titer greater than 50% of vehicle; +, weakly antiviral, with titer between 20 and 50% of vehicle; ++, moderately antiviral, with titer between 5 and 20% of vehicle; +++, highly antiviral, with titer less than 5% of vehicle. Toxicity at these doses is represented as follows: −, nontoxic, with cell viability greater than 80% of vehicle; +, mild toxicity, with cell viability between 60 and 80% of vehicle; +++, high toxicity, with cell viability less than 60% of vehicle. Data summarized here are depicted graphically in Fig. S1 and Fig. 2C, 3C, and [4]C. The Tanimoto combo score of each hit during initial ROCS screening is indicated; higher Tanimoto combo scores are indicative of increased chemical similarity. Download Table S1, PDF file, 0.04 MB.
Supplementary file : FIG S1 Initial screening of eliminated hit compounds for anti-dengue activity in tissue culture cells. BHK-21 cells were pretreated with the compounds at the indicated concentrations for 30 min, infected with dengue virus at an MOI of 0.1 PFU/cell for 1 h, and then posttreated with compound. At 48 hpi, cellular supernatant was collected and titered by plaque assay (purple). Cell viability in uninfected cells in the presence of compounds for 48 h was measured by WST assay (gray). Both viral titer and cell viability are normalized to their relative DMSO vehicle control, N = 2. Download FIG S1, PDF file, 0.06 MB.

For data set [3] the following is noted: ref PubChem database, cited from earlier work; for LD50: single dose.
Data set [4] concerns the target T1, NS2B/3/4A (Dengue virus type 2, UniProt P29990).
T1 construct: NS2B/3/4A protein was expressed in vitro and radiolabeled with [^35S]methionine; made in house; host or cells: rabbit reticulocyte lysate (TNT coupled T7; Promega), cell-free in vitro translation
Nature of the data set: In vitro translation-based proteinase cleavage assay of NS2B/3/4A precursor. In kind it is biochemical. Particulars: 100 μM pyrimethamine vs DMSO, 45-min time course, translation extracts. The method, then:
FIG 2 Pyrimethamine inhibits dengue virus and NS2B/3 proteinase cleavage like ARDP0006. (A) Chemical structures and (B) ROCS overlay of ARDP0006 and pyrimethamine. […] Compounds were added 1 h prior to infection, removed, and then readministered after removal of viral inoculum. Infectious virus in cell supernatant was quantified by plaque assay at 24 hpi (left y axis, black or red). Cell viability was measured at the same pyrimethamine doses 24 h posttreatment by WST-1 assay (right y axis, gray). Viral titer and cell viability were normalized to DMSO-treated samples. (D) Splenic titers of DENV2-infected AGB6 mice at 4 days postinfection. Mice were infected with 1 × 10^6 PFU DENV2 and treated twice daily with 20 mg/kg pyrimethamine (n = 9) or a vehicle control (n = 10). Data were analyzed by two-tailed unpaired t test. […] Reaction samples were obtained over a 45-min time course, separated by SDS-PAGE, and the fraction of uncleaved proteinase precursor remaining was determined as described previously ([23]). Data from three replicates were fit using single-phase exponential decay functions, and P value was determined by comparing the rate constant, K, of the models using the extra sum-of-squares F test. […]
Proteinase cleavage assays were performed as previously described ([23]). […] Protein quantification was performed using ImageQuant TL 8.1 software (GE Healthcare Life Sciences).

The subject of data set [5] is DENV2. Briefly: DENV2-infected AGB6 mouse model (splenic titer, survival). Particulars: for Splenic titer of dengue virus: AGB6 mice, 20 mg/kg pyrimethamine twice daily, oral gavage, 4 days postinfection, 20 mg/kg. It counts as in vivo, AGB6 mice.
Data set [6] concerns dengue virus. Briefly: Antiviral activity in VPS34 knockout Huh7 cells. It counts as cell-based. Particulars: 5 μM compound, MOI 0.5, 24 hpi. Here is the method:
FIG 5 Vandetanib and spautin-1 inhibit dengue maturation and egress in a VPS34-independent manner. […] Cells were pretreated for 1 h, infected for 1 h at an MOI of 0.5 PFU/cell, and posttreated for an additional 23 h. N = 4, one-way ANOVA with Dunnett’s multiple-comparison test. ns, not significant (P > 0.05); **, P < 0.01; ****, P < 0.0001. (C) Huh7 cells transfected with a luciferase-expressing RNA replicon were treated with 3 μM vandetanib (orange) or 1% DMSO vehicle control (black) for 1 h prior to transfection and up to 52 h posttransfection. Luciferase intensity was quantified as a measure of viral protein abundance. Luciferase intensity was shown as relative light units (RLU). The use of an RNA replicon that is directly transfected into cells reflects only translation and RNA replication steps of viral infection, not viral packaging or cell exit. N = 4, two-way ANOVA with Sikak’s multiple-comparison test. […] (D) VPS34 was not required for spautin-1 or vandetanib anti-dengue activity. Wild-type and VPS34 knockout Huh7 cells were treated with 5 μM spautin-1, 5 μM vandetanib, or DMSO. Cells were pretreated, infected at an MOI of 0.5, and posttreated as described above for panels A and B. At 24 hpi, cellular supernatant was collected and titered by plaque assay. N ≥ 3. One-way ANOVA with Dunnett’s multiple-comparison test; *, P < 0.05; **, P < 0.01; ***, P < 0.001; ****, P < 0.0001. […]

Data set [7] deals with dengue virus. Briefly: Extracellular and intracellular virus quantification in Huh7 cells. In kind it is cell-based. Particulars: IC90 dose (spautin-1 2.4 μM, vandetanib 3.6 μM), Huh7, 24 hpi. Here is the method: FIG 5 Vandetanib and spautin-1 inhibit dengue maturation and egress in a VPS34-independent manner. […] Cells were pretreated for 1 h, infected for 1 h at an MOI of 0.5 PFU/cell, and posttreated for an additional 23 h. N = 4, one-way ANOVA with Dunnett’s multiple-comparison test. ns, not significant (P > 0.05); **, P < 0.01; ****, P < 0.0001. (C) Huh7 cells transfected with a luciferase-expressing RNA replicon were treated with 3 μM vandetanib (orange) or 1% DMSO vehicle control (black) for 1 h prior to transfection and up to 52 h posttransfection. Luciferase intensity was quantified as a measure of viral protein abundance. Luciferase intensity was shown as relative light units (RLU). The use of an RNA replicon that is directly transfected into cells reflects only translation and RNA replication steps of viral infection, not viral packaging or cell exit. N = 4, two-way ANOVA with Sikak’s multiple-comparison test. […] (D) VPS34 was not required for spautin-1 or vandetanib anti-dengue activity. Wild-type and VPS34 knockout Huh7 cells were treated with 5 μM spautin-1, 5 μM vandetanib, or DMSO. Cells were pretreated, infected at an MOI of 0.5, and posttreated as described above for panels A and B. At 24 hpi, cellular supernatant was collected and titered by plaque assay. N ≥ 3. One-way ANOVA with Dunnett’s multiple-comparison test; *, P < 0.05; **, P < 0.01; ***, P < 0.001; ****, P < 0.0001.
After 1 h, virus inoculum was aspirated and replaced with medium containing compounds or 1% DMSO. After 24-h total infection, extracellular virus was collected in cellular supernatant and quantified by plaque assay. To collect intracellular virus, cells were washed with PBS, incubated for 3 min at 4°C with high-salt buffer (1 M NaCl, 50 mM sodium bicarbonate [pH 9.5]) to detach cell-associated extracellular virus ([63]), washed twice with PBS, detached with 0.25% trypsin-EDTA, and isolated by centrifugation (500 × g, 5 min, 4°C). Infected cell pellets were resuspended in 750 μl cell culture medium, lysed by repeated freeze/thaw in liquid nitrogen followed by 37°C water bath. Debris was removed by centrifugation (3,200 × g, 5 min, 4°C), and infectious intracellular virus was quantified by BHK-21 plaque assay.

“Also recorded” adds a separate entry of the source. Read-outs that look alike come from different tables or passages of the source.

Broadly, the IC50 is the concentration needed to halve the response being measured. A word on the LD50: it is the dose expected to kill half of the subjects tested. Usually IC90 stands for the concentration needed for an effect of 90%. Higher therefore signals weaker potency.

T1 sequence (P29990 1476-2093): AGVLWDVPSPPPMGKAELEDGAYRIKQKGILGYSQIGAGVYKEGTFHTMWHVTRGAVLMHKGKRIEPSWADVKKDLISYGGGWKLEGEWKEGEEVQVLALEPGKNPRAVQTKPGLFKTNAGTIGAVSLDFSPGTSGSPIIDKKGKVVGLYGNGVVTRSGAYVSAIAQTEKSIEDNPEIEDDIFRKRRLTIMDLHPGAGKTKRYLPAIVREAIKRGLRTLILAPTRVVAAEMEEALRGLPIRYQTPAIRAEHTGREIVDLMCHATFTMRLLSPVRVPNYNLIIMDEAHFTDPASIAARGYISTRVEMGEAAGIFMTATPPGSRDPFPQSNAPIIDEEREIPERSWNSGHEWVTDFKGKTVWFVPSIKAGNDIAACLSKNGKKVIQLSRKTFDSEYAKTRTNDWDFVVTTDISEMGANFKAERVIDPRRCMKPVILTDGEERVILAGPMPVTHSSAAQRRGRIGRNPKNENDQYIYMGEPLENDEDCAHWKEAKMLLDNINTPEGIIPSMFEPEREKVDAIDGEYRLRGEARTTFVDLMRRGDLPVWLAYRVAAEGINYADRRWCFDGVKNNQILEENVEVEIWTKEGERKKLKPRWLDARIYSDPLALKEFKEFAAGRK
T1 sequence (P29990 1346-1475): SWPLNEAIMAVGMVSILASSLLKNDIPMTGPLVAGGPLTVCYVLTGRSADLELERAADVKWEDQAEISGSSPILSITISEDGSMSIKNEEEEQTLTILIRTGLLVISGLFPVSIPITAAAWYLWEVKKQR

With `CCc1nc(N)nc(N)c1-c1ccc(Cl)cc1` [Pyrimethamine, pyrimethamine], the IC50 in data set [1] turned out to be 1.2 µM. Also, the Antiviral result in data set [2] is “+++ (highly antiviral, with titer less than 5% of vehicle)”. In addition, the LD50 in data set [3] (IP) is given as 74 mg/kg; in data set [3] (Oral) it was 92 mg/kg. Also, the “Acute toxicity in words (Table S2)” value in data set [3] (healthy mice) is listed as “well tolerated”. The “Cleavage kinetics of NS2B/3/4A precursor” value in data set [4] is given as “inhibited intramolecular NS2B/3 cleavage”; in data set [4] (listed as pyrimethamine), “significantly slowed dengue virus NS2B/3 cleavage; also recorded: slowing proteinase cleavage in translation extracts”. Also, the entries for the “Splenic titer of dengue virus” value in data set [5] and in data set [5] (listed as pyrimethamine) were “significantly reduced viral splenic burden” and “reduced viral loads; also recorded: significant reduction in splenic titer”, respectively. For the same molecule, the “Mortality on sustained treatment (survival experiments)” value in data set [5] (infected AGB6 mice, sustained pyrimethamine treatment) is “caused marked mortality”.

As to `Fc1ccc(CNc2ncnc3ccc(F)cc23)cc1` [spautin-1], the 90% effect level in data set [1] (from dose-response curve fit, 24 hpi) (IC90) was put at 2.4 µM. The IC50 in data set [1] came to 1.1 µM. The “Antiviral activity in VPS34 knockout cells” value in data set [6] is recorded as “retained significant antiviral activity; also recorded: retained their ability to limit dengue virus egress”. For the same molecule, in data set [7], the Extracellular viral titer result is listed as “significantly reduced; also recorded: reduced extracellular virus” and the Infectious intracellular virus result was “unchanged; also recorded: abundant intracellular virus”.

Source of the values: PMC7667029, “A Targeted Computational Screen of the SWEETLEAD Database Reveals FDA-Approved Compounds with Anti-Dengue Viral Activity” (mBio, 2020).
